Assay results reported in ChEMBL document CHEMBL4507304, “Data for DCP probe TP-021” (2021).

What was measured:
[1] = target: Proto-oncogene tyrosine-protein kinase ROS (Homo sapiens) (UniProt P08922); settings: Compound concentration 1000.0 nM
[2] = target: Discoidin domain-containing receptor 2 (Homo sapiens) (UniProt Q16832); settings: Compound concentration 1000.0 nM
[3] = target: Cyclin-dependent kinase 16 (Homo sapiens) (UniProt Q00536); settings: Compound concentration 1000.0 nM
[4] = target: Dual specificity mitogen-activated protein kinase kinase 3 (Homo sapiens) (UniProt P46734); settings: Compound concentration 1000.0 nM
Sequence of Dual specificity mitogen-activated protein kinase kinase 3 (Homo sapiens) (P46734 whole entry): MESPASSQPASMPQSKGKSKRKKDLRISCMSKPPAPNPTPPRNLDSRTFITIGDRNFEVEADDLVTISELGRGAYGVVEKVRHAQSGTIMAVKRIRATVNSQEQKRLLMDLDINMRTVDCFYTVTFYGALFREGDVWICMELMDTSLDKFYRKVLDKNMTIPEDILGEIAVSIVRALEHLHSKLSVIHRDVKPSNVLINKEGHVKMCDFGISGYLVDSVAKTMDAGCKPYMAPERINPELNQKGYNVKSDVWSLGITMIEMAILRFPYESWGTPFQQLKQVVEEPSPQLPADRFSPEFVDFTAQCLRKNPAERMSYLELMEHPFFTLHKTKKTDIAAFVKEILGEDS

[5] = target: Serine/threonine-protein kinase Nek11 (Homo sapiens) (UniProt Q8NG66); settings: Compound concentration 1000.0 nM
[6] = target: Cyclin-dependent kinase 9 (Homo sapiens) (UniProt P50750); settings: Compound concentration 1000.0 nM
[7] = target: Sodium-dependent dopamine transporter (Homo sapiens) (UniProt Q01959); settings: Compound concentration 10.0 uM
[8] = target: Phosphatidylinositol 4-phosphate 3-kinase C2 domain-containing subunit beta (Homo sapiens) (UniProt O00750); settings: Compound concentration 1000.0 nM
[9] = target: Tyrosine-protein kinase Srms (Homo sapiens) (UniProt Q9H3Y6); settings: Compound concentration 1000.0 nM
[10] = target: Serine/threonine-protein kinase D1 (Homo sapiens) (UniProt Q15139); settings: Compound concentration 1000.0 nM
[11] = tested on: Tyrosine-protein kinase ABL1 (Homo sapiens), P00519 [H396P]; settings: Compound concentration 1000.0 nM
[12] = target: Testis-specific serine/threonine-protein kinase 1 (Homo sapiens) (UniProt Q9BXA7); settings: Compound concentration 1000.0 nM
[13] = target: LIM domain kinase 1 (Homo sapiens) (UniProt P53667); settings: Compound concentration 1000.0 nM
[14] = target: Rhodopsin kinase GRK7 (Homo sapiens) (UniProt Q8WTQ7); settings: Compound concentration 1000.0 nM
Sequence of Rhodopsin kinase GRK7 (Homo sapiens) (Q8WTQ7 whole entry): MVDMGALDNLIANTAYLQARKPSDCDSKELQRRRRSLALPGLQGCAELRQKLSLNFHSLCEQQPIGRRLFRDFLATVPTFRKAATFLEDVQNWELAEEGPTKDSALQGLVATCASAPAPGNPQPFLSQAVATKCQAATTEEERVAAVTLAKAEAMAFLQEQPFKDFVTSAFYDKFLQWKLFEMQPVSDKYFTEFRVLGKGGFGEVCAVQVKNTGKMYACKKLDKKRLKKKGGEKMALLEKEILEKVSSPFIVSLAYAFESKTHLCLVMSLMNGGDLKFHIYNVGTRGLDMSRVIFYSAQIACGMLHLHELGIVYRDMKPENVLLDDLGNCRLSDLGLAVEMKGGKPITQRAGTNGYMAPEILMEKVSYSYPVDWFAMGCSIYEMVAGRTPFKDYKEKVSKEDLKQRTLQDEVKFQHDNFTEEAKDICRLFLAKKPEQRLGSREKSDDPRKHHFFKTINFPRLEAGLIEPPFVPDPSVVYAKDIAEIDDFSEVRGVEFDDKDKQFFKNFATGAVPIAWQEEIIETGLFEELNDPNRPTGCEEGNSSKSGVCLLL

[15] = target: SNF-related serine/threonine-protein kinase (Homo sapiens) (UniProt Q9NRH2); settings: Compound concentration 1000.0 nM
[16] = target: Myosin light chain kinase, smooth muscle (Homo sapiens) (UniProt Q15746); settings: Compound concentration 1000.0 nM
[17] = target: Calcium/calmodulin-dependent protein kinase type II subunit gamma (Homo sapiens) (UniProt Q13555); settings: Compound concentration 1000.0 nM
[18] = target: Cyclin-dependent kinase 15 (Homo sapiens) (UniProt Q96Q40); settings: Compound concentration 1000.0 nM
[19] = target: Serine/threonine-protein kinase OSR1 (Homo sapiens) (UniProt O95747); settings: Compound concentration 1000.0 nM
Sequence of Serine/threonine-protein kinase OSR1 (Homo sapiens) (O95747 2-527 limits assumed): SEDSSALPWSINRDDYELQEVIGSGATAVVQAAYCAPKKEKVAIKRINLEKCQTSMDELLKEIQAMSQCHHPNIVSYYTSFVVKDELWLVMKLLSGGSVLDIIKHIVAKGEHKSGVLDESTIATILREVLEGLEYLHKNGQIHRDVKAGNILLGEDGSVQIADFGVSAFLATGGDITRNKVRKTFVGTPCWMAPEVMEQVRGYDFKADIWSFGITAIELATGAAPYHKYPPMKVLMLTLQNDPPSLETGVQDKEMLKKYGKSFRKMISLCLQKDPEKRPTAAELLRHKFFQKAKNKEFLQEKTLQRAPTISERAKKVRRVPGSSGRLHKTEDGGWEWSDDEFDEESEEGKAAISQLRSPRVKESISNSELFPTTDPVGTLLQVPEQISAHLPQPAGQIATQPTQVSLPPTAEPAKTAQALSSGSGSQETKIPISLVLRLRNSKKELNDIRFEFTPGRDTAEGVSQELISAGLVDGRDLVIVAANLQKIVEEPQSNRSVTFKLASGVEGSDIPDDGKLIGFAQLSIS

[20] = target: Serine/threonine-protein kinase RIO1 (Homo sapiens) (UniProt Q9BRS2); settings: Compound concentration 1000.0 nM
[21] = tested on: Tyrosine-protein kinase ABL1 (Homo sapiens), P00519 [Y253F]; settings: Compound concentration 1000.0 nM
[22] = target: Cyclin-dependent kinase 5 (Homo sapiens) (UniProt Q00535); settings: Compound concentration 1000.0 nM
[23] = target: MAP kinase-interacting serine/threonine-protein kinase 2 (Homo sapiens) (UniProt Q9HBH9); settings: Compound concentration 1000.0 nM
[24] = target: Myosin light chain kinase (Homo sapiens) (UniProt Q32MK0); settings: Compound concentration 1000.0 nM
[25] = tested on: Epidermal growth factor receptor (Homo sapiens), P00533 [G719S]; settings: Compound concentration 1000.0 nM
[26] = target: Phosphorylase b kinase regulatory subunit alpha, liver isoform (Homo sapiens) (UniProt P46019); settings: Compound concentration 1000.0 nM
[27] = target: Ephrin type-A receptor 5 (Homo sapiens) (UniProt P54756); settings: Compound concentration 1000.0 nM
[28] = target: Mitogen-activated protein kinase 7 (Homo sapiens) (UniProt Q13164); settings: Compound concentration 1000.0 nM
[29] = target: Serine/threonine-protein kinase ULK2 (Homo sapiens) (UniProt Q8IYT8); settings: Compound concentration 1000.0 nM
[30] = target: Mitogen-activated protein kinase kinase kinase 13 (Homo sapiens) (UniProt O43283); settings: Compound concentration 1000.0 nM
[31] = target: Mast/stem cell growth factor receptor Kit (Homo sapiens) (UniProt P10721); settings: Compound concentration 1000.0 nM
[32] = target: Citron Rho-interacting kinase (Homo sapiens) (UniProt O14578); settings: Compound concentration 1000.0 nM
Sequence of Citron Rho-interacting kinase (Homo sapiens) (O14578 whole entry): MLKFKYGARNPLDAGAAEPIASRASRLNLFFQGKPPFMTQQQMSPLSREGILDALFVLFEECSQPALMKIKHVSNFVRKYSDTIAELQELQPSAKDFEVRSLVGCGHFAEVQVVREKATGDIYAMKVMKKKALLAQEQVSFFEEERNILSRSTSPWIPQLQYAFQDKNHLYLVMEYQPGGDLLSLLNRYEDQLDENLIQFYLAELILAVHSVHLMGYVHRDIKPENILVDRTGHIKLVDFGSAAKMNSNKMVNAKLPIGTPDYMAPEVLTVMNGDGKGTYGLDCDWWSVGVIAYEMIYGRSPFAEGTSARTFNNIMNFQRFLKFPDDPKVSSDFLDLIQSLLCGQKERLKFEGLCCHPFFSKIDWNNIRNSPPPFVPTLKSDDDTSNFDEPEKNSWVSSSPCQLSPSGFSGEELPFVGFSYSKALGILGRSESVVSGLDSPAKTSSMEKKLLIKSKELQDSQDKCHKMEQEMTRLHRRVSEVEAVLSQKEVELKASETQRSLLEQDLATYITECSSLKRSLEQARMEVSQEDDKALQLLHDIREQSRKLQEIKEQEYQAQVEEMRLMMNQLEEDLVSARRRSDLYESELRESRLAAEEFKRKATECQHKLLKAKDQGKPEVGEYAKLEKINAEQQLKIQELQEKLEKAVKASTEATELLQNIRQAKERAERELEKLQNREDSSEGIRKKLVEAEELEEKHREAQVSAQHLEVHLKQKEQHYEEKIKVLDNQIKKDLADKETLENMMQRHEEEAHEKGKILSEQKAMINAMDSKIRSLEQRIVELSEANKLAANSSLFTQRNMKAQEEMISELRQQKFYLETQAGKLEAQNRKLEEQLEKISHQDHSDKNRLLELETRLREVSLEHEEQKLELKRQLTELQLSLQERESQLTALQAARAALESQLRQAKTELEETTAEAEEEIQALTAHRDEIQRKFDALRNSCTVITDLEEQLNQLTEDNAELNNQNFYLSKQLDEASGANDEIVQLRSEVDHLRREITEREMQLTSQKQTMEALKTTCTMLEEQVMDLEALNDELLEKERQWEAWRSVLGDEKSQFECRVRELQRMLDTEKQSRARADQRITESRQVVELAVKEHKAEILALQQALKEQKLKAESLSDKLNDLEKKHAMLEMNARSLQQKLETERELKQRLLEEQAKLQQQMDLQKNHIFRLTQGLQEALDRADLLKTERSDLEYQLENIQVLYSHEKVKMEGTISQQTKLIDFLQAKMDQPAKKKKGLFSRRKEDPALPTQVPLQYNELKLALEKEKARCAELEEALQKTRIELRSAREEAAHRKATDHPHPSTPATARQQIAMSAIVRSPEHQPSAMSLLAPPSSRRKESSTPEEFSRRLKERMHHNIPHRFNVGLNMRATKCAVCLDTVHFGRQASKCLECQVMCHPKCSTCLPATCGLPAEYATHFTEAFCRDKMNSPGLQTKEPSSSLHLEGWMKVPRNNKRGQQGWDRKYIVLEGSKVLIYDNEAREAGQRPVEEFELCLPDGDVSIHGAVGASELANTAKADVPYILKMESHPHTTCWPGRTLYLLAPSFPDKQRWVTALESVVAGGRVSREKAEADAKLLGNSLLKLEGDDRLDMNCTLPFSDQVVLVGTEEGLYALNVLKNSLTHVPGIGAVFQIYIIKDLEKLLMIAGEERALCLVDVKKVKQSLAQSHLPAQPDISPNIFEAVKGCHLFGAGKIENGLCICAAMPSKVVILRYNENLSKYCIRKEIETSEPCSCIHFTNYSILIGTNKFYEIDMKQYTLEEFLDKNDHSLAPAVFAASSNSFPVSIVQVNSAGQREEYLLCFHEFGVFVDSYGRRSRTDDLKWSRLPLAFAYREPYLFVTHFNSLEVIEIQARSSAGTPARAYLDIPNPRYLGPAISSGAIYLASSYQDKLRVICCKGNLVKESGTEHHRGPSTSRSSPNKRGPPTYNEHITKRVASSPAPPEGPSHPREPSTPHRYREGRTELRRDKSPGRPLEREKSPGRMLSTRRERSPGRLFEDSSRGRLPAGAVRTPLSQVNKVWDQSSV

[33] = tested on: Hepatocyte growth factor receptor (Homo sapiens), P08581 [M1250T]; settings: Compound concentration 1000.0 nM
[34] = target: Ribosomal protein S6 kinase beta-1 (Homo sapiens) (UniProt P23443); settings: Compound concentration 1000.0 nM
Sequence of Ribosomal protein S6 kinase beta-1 (Homo sapiens) (P23443 whole entry, looked up): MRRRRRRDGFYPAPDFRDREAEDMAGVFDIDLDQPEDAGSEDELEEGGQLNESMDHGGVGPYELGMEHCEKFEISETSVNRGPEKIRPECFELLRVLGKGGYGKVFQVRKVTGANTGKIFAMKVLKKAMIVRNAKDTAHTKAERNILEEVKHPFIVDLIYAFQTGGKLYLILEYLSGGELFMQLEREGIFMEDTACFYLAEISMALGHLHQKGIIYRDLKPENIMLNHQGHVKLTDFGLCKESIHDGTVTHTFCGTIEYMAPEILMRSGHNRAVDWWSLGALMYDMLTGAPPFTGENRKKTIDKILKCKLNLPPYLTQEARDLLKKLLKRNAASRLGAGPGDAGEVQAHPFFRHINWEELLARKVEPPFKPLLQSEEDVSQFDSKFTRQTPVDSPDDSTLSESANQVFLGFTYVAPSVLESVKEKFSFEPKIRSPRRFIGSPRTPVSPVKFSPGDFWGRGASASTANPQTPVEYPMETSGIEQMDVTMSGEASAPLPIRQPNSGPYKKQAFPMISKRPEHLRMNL

[35] = target: Mitogen-activated protein kinase 3 (Homo sapiens) (UniProt P27361); settings: Compound concentration 1000.0 nM
Sequence of Mitogen-activated protein kinase 3 (Homo sapiens) (P27361 whole entry): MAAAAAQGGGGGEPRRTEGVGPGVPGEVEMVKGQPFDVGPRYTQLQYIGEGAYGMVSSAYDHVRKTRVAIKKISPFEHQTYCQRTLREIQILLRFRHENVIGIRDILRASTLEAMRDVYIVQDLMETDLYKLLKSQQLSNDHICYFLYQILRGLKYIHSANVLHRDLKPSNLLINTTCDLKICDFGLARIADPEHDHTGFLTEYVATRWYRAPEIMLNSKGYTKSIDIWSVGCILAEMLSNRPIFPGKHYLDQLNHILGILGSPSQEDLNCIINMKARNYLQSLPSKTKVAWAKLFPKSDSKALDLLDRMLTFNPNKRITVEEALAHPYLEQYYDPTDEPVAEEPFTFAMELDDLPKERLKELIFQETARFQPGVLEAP

[36] = tested on: Tyrosine-protein kinase ABL1 (Homo sapiens), P00519 [Q252H]; settings: Compound concentration 1000.0 nM
[37] = target: Ribosomal protein S6 kinase alpha-4 (Homo sapiens) (UniProt O75676); settings: Compound concentration 1000.0 nM
[38] = tested on: Hepatocyte growth factor receptor (Homo sapiens), P08581 [Y1235D]; settings: Compound concentration 1000.0 nM
[39] = target: cAMP-dependent protein kinase catalytic subunit beta (Homo sapiens) (UniProt P22694); settings: Compound concentration 1000.0 nM
[40] = target: Serine/threonine-protein kinase NIM1 (Homo sapiens) (UniProt Q8IY84); settings: Compound concentration 1000.0 nM
[41] = target: Cytoplasmic tyrosine-protein kinase BMX (Homo sapiens) (UniProt P51813); settings: Compound concentration 1000.0 nM
[42] = target: Serine/threonine-protein kinase TAO1 (Homo sapiens) (UniProt Q7L7X3); settings: Compound concentration 1000.0 nM
[43] = target: 3-phosphoinositide-dependent protein kinase 1 (Homo sapiens) (UniProt O15530); settings: Compound concentration 1000.0 nM
Sequence of 3-phosphoinositide-dependent protein kinase 1 (Homo sapiens) (O15530 whole entry): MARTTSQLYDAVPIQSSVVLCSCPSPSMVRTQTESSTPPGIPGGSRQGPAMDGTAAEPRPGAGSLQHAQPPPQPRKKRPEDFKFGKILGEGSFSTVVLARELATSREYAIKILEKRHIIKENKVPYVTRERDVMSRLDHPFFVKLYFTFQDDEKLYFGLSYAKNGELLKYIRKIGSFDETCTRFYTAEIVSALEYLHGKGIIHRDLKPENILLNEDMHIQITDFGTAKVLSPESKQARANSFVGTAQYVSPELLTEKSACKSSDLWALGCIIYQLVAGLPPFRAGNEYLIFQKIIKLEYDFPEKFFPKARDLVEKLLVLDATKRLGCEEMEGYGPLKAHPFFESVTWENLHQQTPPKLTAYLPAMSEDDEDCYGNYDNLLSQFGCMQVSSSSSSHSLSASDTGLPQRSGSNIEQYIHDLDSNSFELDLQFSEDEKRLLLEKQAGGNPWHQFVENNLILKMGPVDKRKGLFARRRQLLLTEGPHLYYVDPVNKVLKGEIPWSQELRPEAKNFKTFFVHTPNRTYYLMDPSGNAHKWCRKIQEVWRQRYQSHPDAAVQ

[44] = target: Dual specificity protein kinase CLK4 (Homo sapiens) (UniProt Q9HAZ1); settings: Compound concentration 1000.0 nM
[45] = target: Alpha-1B adrenergic receptor (Homo sapiens) (UniProt P35368); settings: Compound concentration 10.0 uM

N#Cc1ccc(Nc2ccc3[nH]c(=O)[nH]c3c2)c(Cl)c1
inactive: residual activity [1] 100% | residual activity [2] 100% | residual activity [3] 100% | residual activity [4] 75% | residual activity [5] 100% | residual activity [6] 100% | inhibition [7] 14% | residual activity [8] 99% | residual activity [9] 100% | residual activity [10] 82% | residual activity [11] 93% | residual activity [12] 56% | residual activity [13] 100% | residual activity [14] 100% | residual activity [15] 100% | residual activity [16] 96% | residual activity [17] 78% | residual activity [18] 94% | residual activity [19] 75% | residual activity [20] 100% | residual activity [21] 87% | residual activity [22] 100% | residual activity [23] 100% | residual activity [24] 93% | residual activity [25] 100% | residual activity [26] 100% | residual activity [27] 100% | residual activity [28] 100% | residual activity [29] 99% | residual activity [30] 100% | residual activity [31] 100% | residual activity [32] 100% | residual activity [33] 100% | residual activity [34] 100% | residual activity [35] 95% | residual activity [36] 100% | residual activity [37] 95% | residual activity [38] 95% | residual activity [39] 96% | residual activity [40] 100% | residual activity [41] 100% | residual activity [42] 97% | residual activity [43] 97% | residual activity [44] 98% | inhibition [45] 10%

O=C1CCc2cc(Nc3cc(OC4CCOCC4)c([N+](=O)[O-])cc3Cl)ccc2N1
inactive: residual activity [1] 100% | residual activity [2] 100% | residual activity [3] 88% | residual activity [4] 86% | residual activity [5] 100% | residual activity [6] 97% | inhibition [7] 13.6% | residual activity [8] 89% | residual activity [9] 82% | residual activity [10] 87% | residual activity [11] 89% | residual activity [12] 85% | residual activity [13] 100% | residual activity [14] 100% | residual activity [15] 100% | residual activity [16] 94% | residual activity [17] 100% | residual activity [18] 73% | residual activity [19] 83% | residual activity [20] 100% | residual activity [21] 79% | residual activity [22] 97% | residual activity [23] 98% | residual activity [24] 100% | residual activity [25] 100% | residual activity [26] 100% | residual activity [27] 93% | residual activity [28] 100% | residual activity [29] 99% | residual activity [30] 91% | residual activity [31] 95% | residual activity [32] 100% | residual activity [33] 93% | residual activity [34] 100% | residual activity [35] 78% | residual activity [36] 100% | residual activity [37] 72% | residual activity [38] 100% | residual activity [39] 100% | residual activity [40] 100% | residual activity [41] 69% | residual activity [42] 81% | residual activity [43] 100% | residual activity [44] 88% | inhibition [45] 17.2%
